Laboratory results taken from PubChem BioAssay AID1963421 (Molecular Pharmacology Branch, DTP, NCI, 2024).

Test system: 519858-162-T-J1-PDC complex spheroid growth, % test/control
Experiment: Anticancer human tumor 519858-162-T-J1-PDC patient-derived colon adenocarcinoma cell line growth inhibition [Asc]
Conditions: for IC50: curve of first compound; for viability, T/C: stronger effect = lower value; active means viability on the fitted dose curve at most 10% of control; inactive means the rest
Summary of the method: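 Stromal components (HUVEC and hMSC) are co-assembled with the cancer cells into multicellular spheroids. Drugs are then added singly or paired, at concentrations falling by half-log increments from a clinically achievable maximum, capped at 10 microM without known Cmax.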
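Further: seven day drug exposure begun three days after spheroid seeding.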
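Wherever viability, T/C is given: 100% = DMSO vehicle wells and lower values mean less viable spheroid.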

O=C(c1cc(Cc2n[nH]c(=O)c3ccccc23)ccc1F)N1CCN(C(=O)C2CC2)CC1 + Cc1c(S(C)(=O)=O)c(-c2cc(F)cc(N3CCN(c4ccc(NS(=O)(=O)c5ccc(NC(CCN6CCC(C(=O)OCCCP(=O)(O)O)CC6)CSc6ccccc6)c(S(=O)(=O)C(F)(F)F)c5)cc4)CC3)c2)c(-c2ccc(Cl)cc2)n1C(C)C
> 10 µM: IC50 (second compound 0.0316 µM) | IC50 (second compound 0.1 µM) | IC50 (second compound 0.316 µM) | IC50 (second compound 1 µM) | IC50 (second compound 3.16 µM) | IC50 (second compound 10 µM)
inactive: viability, T/C (second compound 0.0316 µM, first compound 0.0316 µM) 68.1% | viability, T/C (second compound 0.0316 µM, first compound 0.1 µM) 92.3% | viability, T/C (second compound 0.0316 µM, first compound 0.316 µM) 77.4% | viability, T/C (second compound 0.0316 µM, first compound 1 µM) 104% | viability, T/C (second compound 0.0316 µM, first compound 3.16 µM) 91.5% | viability, T/C (second compound 0.0316 µM, first compound 10 µM) 68.3% | viability, T/C (second compound 0.1 µM, first compound 0.0316 µM) 92.1% | viability, T/C (second compound 0.1 µM, first compound 0.1 µM) 107% | viability, T/C (second compound 0.1 µM, first compound 0.316 µM) 102% | viability, T/C (second compound 0.1 µM, first compound 1 µM) 75.8% | viability, T/C (second compound 0.1 µM, first compound 3.16 µM) 58.7% | viability, T/C (second compound 0.1 µM, first compound 10 µM) 78.3% | viability, T/C (second compound 0.316 µM, first compound 0.0316 µM) 100% | viability, T/C (second compound 0.316 µM, first compound 0.1 µM) 129% | viability, T/C (second compound 0.316 µM, first compound 0.316 µM) 77.8% | viability, T/C (second compound 0.316 µM, first compound 1 µM) 87.2% | viability, T/C (second compound 0.316 µM, first compound 3.16 µM) 101% | viability, T/C (second compound 0.316 µM, first compound 10 µM) 62.9% | viability, T/C (second compound 1 µM, first compound 0.0316 µM) 95.4% | viability, T/C (second compound 1 µM, first compound 0.1 µM) 100% | viability, T/C (second compound 1 µM, first compound 0.316 µM) 71.6% | viability, T/C (second compound 1 µM, first compound 1 µM) 73.8% | viability, T/C (second compound 1 µM, first compound 3.16 µM) 93.1% | viability, T/C (second compound 1 µM, first compound 10 µM) 100% | viability, T/C (second compound 3.16 µM, first compound 0.0316 µM) 76.5% | viability, T/C (second compound 3.16 µM, first compound 0.1 µM) 94% | viability, T/C (second compound 3.16 µM, first compound 0.316 µM) 74.8% | viability, T/C (second compound 3.16 µM, first compound 1 µM) 84.1% | viability, T/C (second compound 3.16 µM, first compound 3.16 µM) 70.7% | viability, T/C (second compound 3.16 µM, first compound 10 µM) 86.6% | viability, T/C (second compound 10 µM, first compound 0.0316 µM) 71.6% | viability, T/C (second compound 10 µM, first compound 0.1 µM) 101% | viability, T/C (second compound 10 µM, first compound 0.316 µM) 58.2% | viability, T/C (second compound 10 µM, first compound 1 µM) 72.9% | viability, T/C (second compound 10 µM, first compound 3.16 µM) 65.2% | viability, T/C (second compound 10 µM, first compound 10 µM) 57.6%
